In patent US20250074888A1, “PYRIDAZINE DERIVATIVES AS MODULATORS OF NLRP3 INFLAMMASOME AND RELATED METHODS” (Neumora Therapeutics, Inc., priority 2021, published 2025):

How the values were obtained:
NLRP3 inflammasome = NLRP3 inflammasome (Homo sapiens, UniProt Q96P20); assay: NLRP3 inflammasome activation in THP1 macrophages (LPS priming, nigericin), IL-1β AlphaLISA; assay type: cell-based; details: PMA-differentiated THP1, LPS 20 ng/ml 3 hrs, compound 1 hr, Nigericin 6.7 uM 3 hrs, supernatant
Chain of NLRP3 inflammasome (Q96P20 whole entry): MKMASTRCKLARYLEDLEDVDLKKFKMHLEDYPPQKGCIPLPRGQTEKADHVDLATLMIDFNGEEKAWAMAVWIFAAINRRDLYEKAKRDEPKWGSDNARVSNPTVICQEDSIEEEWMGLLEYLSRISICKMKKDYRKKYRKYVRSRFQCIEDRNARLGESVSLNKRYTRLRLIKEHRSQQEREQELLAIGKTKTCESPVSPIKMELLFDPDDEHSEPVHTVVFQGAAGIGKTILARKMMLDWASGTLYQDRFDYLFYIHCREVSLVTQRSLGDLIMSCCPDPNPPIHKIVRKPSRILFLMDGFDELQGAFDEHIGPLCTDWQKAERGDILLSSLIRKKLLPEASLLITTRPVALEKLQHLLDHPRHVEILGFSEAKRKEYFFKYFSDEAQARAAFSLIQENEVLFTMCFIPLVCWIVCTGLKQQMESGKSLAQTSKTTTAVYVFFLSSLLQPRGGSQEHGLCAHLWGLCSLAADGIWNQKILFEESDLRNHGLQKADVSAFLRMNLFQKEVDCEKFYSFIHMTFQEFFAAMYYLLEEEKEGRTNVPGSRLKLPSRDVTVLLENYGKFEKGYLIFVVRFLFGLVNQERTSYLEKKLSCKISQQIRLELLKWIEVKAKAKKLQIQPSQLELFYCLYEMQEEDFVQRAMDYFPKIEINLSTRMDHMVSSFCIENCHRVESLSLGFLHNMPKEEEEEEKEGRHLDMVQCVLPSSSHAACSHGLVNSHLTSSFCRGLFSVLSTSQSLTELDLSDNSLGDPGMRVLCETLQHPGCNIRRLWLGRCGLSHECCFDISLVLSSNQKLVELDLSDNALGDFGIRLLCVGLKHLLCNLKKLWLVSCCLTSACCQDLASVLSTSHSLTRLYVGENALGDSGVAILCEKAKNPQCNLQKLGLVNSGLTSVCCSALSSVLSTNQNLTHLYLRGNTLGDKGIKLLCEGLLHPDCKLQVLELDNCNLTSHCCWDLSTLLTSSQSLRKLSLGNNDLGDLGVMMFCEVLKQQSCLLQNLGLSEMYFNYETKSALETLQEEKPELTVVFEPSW

IL-6 = IL-6 release from LPS-primed, nigericin-treated THP1 macrophages, Hu IL-6 AlphaLISA; assay type: cell-based; details: Homo sapiens, THP-1; PMA-differentiated THP1, LPS 20 ng/ml 3 hrs, compound 1 hr, Nigericin 6.7 uM 3 hrs, supernatant

SMILES | IC50 (NLRP3 inflammasome) [nM] | IC50 (IL-6) [nM]
Cc1cc(-c2ccc(C(F)(F)F)cc2F)nnc1N[C@@H]1CCCN(C)C1 [compound 29] | 100 to 500 | > 10000
Cc1c(N[C@@H]2CCCN(C)C2)nnc(-c2ccc(C(F)(F)F)cc2)c1C [compound 14] | 10 to 50 | > 10000
Cc1cc(N(C)[C@@H]2CCCN(C)C2)nnc1-c1ccc(Cl)cc1 [compound 202] | 100 to 500 | > 10000
Cc1cc(Cl)ccc1-c1nnc(N[C@@H]2CCN(C)C2)cc1C [compound 187] | > 1000 | > 10000
Cc1cc(N[C@@H]2C[C@H](F)CN(C)C2)nnc1-c1ccc(C(F)(F)F)cc1 [compound 137] | 100 to 500 | > 10000
CCc1cccc(-c2cc(C)c(N[C@@H]3CCCN(C)C3)nn2)c1 [compound 78] | > 1000 | > 10000
CCN1C[C@H](F)C[C@@H](Nc2cc(C)c(-c3ccc(F)cc3)nn2)C1 [compound 150] | > 1000 | > 10000
Cc1cc(F)ccc1-c1cc(C)c(N[C@@H]2CCCN(C)C2)nn1 [compound 133] | 10 to 50 | > 10000
CCN1CCC[C@@H](Nc2cc(C)c(-c3ccc(C(F)(F)F)cc3)nn2)C1 [compound 1] | ≤ 10 | > 10000
Cc1cc(N(C)[C@@H]2CCN(C)C2)nnc1-c1ccc(C(F)(F)F)cc1 [compound 185] | > 1000 | 1000 to 5000
CCc1cccc(-c2nnc(N[C@@H]3CCCN(C)C3)cc2C)c1 [compound 55] | > 1000 | > 10000
Cc1cc(N[C@@H]2CCCN(C)C2)nnc1-c1ccc(F)c(C#N)c1 [compound 108] | > 1000 | > 10000
Cc1cc(N[C@@H]2CCCN(C)C2)nnc1-c1ccc(C(F)(F)F)cc1C#N [compound 40] | 50 to 100 | 5000 to 10000
Cc1cc(N[C@@H]2CCCN(C)C2)nnc1-c1ccc(C(F)(F)F)c(F)c1 [compound 26] | 100 to 500 | > 10000
Cc1cc(N[C@@H]2CCCN(C(C)C)C2)nnc1-c1ccc(F)cc1 [compound 135] | 10 to 50 | > 10000
CN1CCC[C@@H](Nc2cc(C(F)(F)F)c(-c3ccc(F)cc3)nn2)C1 [compound 192] | ≤ 10 | > 10000
CN1CCC[C@@H](Nc2ccc(-c3ccc(C(F)(F)F)cc3)nn2)C1 [compound 67] | 100 to 500 | > 10000
COc1cccc(-c2cc(C)c(N[C@@H]3CCCN(C)C3)nn2)c1 [compound 53] | > 1000 | > 10000
Cc1cc(-c2nnc(N[C@@H]3CCCN(C)C3)cc2C)ccc1C(F)(F)F [compound 99] | 500 to 1000 | > 10000
Cc1cc(C(F)(F)F)ccc1-c1nnc(N[C@@H]2CCCN(C)C2)cc1O [compound 198] | 500 to 1000 | > 10000
Cc1cc(-c2ccc(C(F)(F)F)cc2)nnc1N[C@@H]1CCN(C)C1 [compound 182] | 50 to 100 | > 10000
Cc1cc(N[C@@H]2CCCN(C)C2)nnc1-c1ccc(F)c(F)c1 [compound 64] | 100 to 500 | > 10000
Cc1cc(-c2ccc(F)cc2C#N)nnc1N[C@@H]1CCCN(C)C1 [compound 97] | > 1000 | > 10000

SMILES | IC50 (NLRP3 inflammasome) [nM] | IC50 (IL-6) [nM]
Cc1cc(-c2ccc(F)c(F)c2)nnc1N[C@@H]1CCCN(C)C1 [compound 117] | > 1000 | > 10000
CN1CCC[C@@H](Nc2ccc(-c3ccc(F)cc3)nn2)C1 [compound 126] | > 1000 | > 10000
CCN1C[C@H](F)C[C@@H](Nc2cc(C)c(-c3ccc(C(F)(F)F)cc3)nn2)C1 [compound 146] | ≤ 10 | 5000 to 10000
Cc1cc(N[C@@H]2CCCN(C)C2)nnc1-c1ccc(Cl)cc1 [compound 127] | ≤ 10 | > 10000
Cc1cc(-c2ccc(C(F)(F)F)c(F)c2)nnc1N[C@@H]1CCCN(C)C1 [compound 38] | 500 to 1000 | > 10000
COc1cc(C(F)(F)F)ccc1-c1nnc(N[C@@H]2CCCN(C)C2)cc1C [compound 8] | 10 to 50 | > 10000
Cc1cc(-c2ccc(C#N)cc2)nnc1N[C@@H]1CCCN(C)C1 [compound 80] | > 1000 | > 10000
Cc1cc(-c2ccc(OC(F)(F)F)cc2)nnc1N[C@@H]1CCCN(C)C1 [compound 81] | > 1000 | > 10000
Cc1cc(N[C@@H]2C[C@H](F)CN(C)C2)nnc1-c1ccc(F)cc1 [compound 139] | 500 to 1000 | 5000 to 10000
Cc1cc(N[C@@H]2CCCN(C)C2)nnc1-c1ccc(O)cc1 [compound 104] | > 1000 | > 10000
Cc1cc(-c2ccc(C3CCC3)cc2)nnc1N[C@@H]1CCCN(C)C1 [compound 95] | > 1000 | 5000 to 10000
COc1cccc(-c2nnc(N[C@@H]3CCCN(C)C3)cc2C)c1 [compound 52] | > 1000 | > 10000
Cc1cc(N[C@@H]2CCCN(C)C2)nnc1-c1cccc(C#N)c1 [compound 50] | > 1000 | > 10000
Cc1c(-c2ccc(C(F)(F)F)cc2)nnc(N[C@@H]2CCCN(C)C2)c1O [compound 191] | 10 to 50 | > 10000
Cc1cc(N[C@@H]2CCCN(C)C2)nnc1-c1ccccc1C#N [compound 89] | > 1000 | > 10000
Cc1cc(-c2ccc(N[C@@H]3CCCN(C)C3)nn2)c(C)cc1F [compound 71] | 10 to 50 | > 10000
Cc1cc(-c2ccc(C(F)(F)F)c(C#N)c2)nnc1N[C@@H]1CCCN(C)C1 [compound 113] | > 1000 | > 10000
Cc1cc(N[C@@H]2CCCCN(C)C2)nnc1-c1ccc(C(F)(F)F)cc1 [compound 176] | 50 to 100 | > 10000
Cc1cc(N[C@H]2CN(C)CC[C@@H]2F)nnc1-c1ccc(F)cc1 [compound 138] | > 1000 | > 10000
Cc1cc(N[C@@H]2CCCN(C)C2)nnc1-c1ccc(F)c(Cl)c1 [compound 34] | 100 to 500 | > 10000
Cc1cc(-c2ccc(Cl)cc2C#N)nnc1N[C@@H]1CCCN(C)C1 [compound 173] | > 1000 | > 10000
Cc1cc(N[C@H]2CCCN(C)C2)nnc1-c1ccc(C(F)(F)F)cc1 [compound 118] | > 1000 | > 10000
Cc1cc(N[C@@H]2CCCN(C3CC3)C2)nnc1-c1ccc(C(F)(F)F)cc1 [compound 68] | ≤ 10 | > 10000

SMILES | IC50 (NLRP3 inflammasome) [nM] | IC50 (IL-6) [nM]
Cc1cc(-c2ccc(Cl)c(F)c2)nnc1N[C@@H]1CCCN(C)C1 [compound 147] | > 1000 | 5000 to 10000
CCN1CCC[C@@H](Nc2cc(C)c(-c3ccc(Cl)cc3C)nn2)C1 [compound 201] | ≤ 10 | > 10000
Cc1cc(N[C@H]2CN(C)CC[C@@H]2F)nnc1-c1ccc(C(F)(F)F)cc1 [compound 136] | 50 to 100 | 5000 to 10000
Cc1ccc(-c2ccc(N[C@@H]3CCCN(C)C3)nn2)c(C)c1 [compound 21] | 100 to 500 | 5000 to 10000
Cc1cc(-c2cc(C)c(F)c(C)c2)nnc1N[C@@H]1CCCN(C)C1 [compound 107] | > 1000 | > 10000
Cc1cc(N[C@@H]2CCN(C)C2)nnc1-c1ccc(F)cc1 [compound 183] | 100 to 500 | > 10000
Cc1cc(-c2ccc(C(F)(F)F)cc2C(F)F)nnc1N[C@@H]1CCCN(C)C1 [compound 166] | 10 to 50 | > 10000
Cc1cc(F)ccc1-c1nnc(N[C@@H]2CCCN(C)C2)cc1C [compound 132] | 10 to 50 | > 10000
Cc1cc(N[C@@H]2CCCN(C)C2)nnc1-c1ccc(C(F)(F)F)cc1 [compound 3, (R)-5-methyl-N-(1-methylpiperidin-3-yl)-6-(4-(trifluoromethyl)phenyl)-pyridazin-3-amine] | 10 to 50 | 5000 to 10000
Cc1cc(N[C@H]2CN(C)CC(F)(F)C2)nnc1-c1ccc(C(F)(F)F)cc1 [compound 69] | 50 to 100 | > 10000
Cc1cc(N[C@H]2CN(C)CC[C@H]2F)nnc1-c1ccc(C(F)(F)F)cc1 [compound 74, N-((3S,4R)-4-fluoro-1-methylpiperidin-3-yl)-5-methyl-6-(4-(trifluoromethyl)-phenyl)pyridazin-3-amine] | > 1000 | > 10000
Cc1cc(N[C@@H]2CCCN(C)C2)nnc1-c1cccc(C(C)C)c1 [compound 37] | 500 to 1000 | > 10000
Cc1cc(N[C@@H]2CCCN(C)C2)nnc1-c1ccc(O)c(C)c1C(F)(F)F [compound 76] | > 1000 | 5000 to 10000
CN1CCC[C@@H](Nc2nnc(-c3ccc(C(F)(F)F)cc3)cc2C#N)C1 [compound 103] | > 1000 | > 10000
CCc1cc(N[C@@H]2CCCN(C)C2)nnc1-c1ccc(C(F)(F)F)cc1 [compound 10] | 10 to 50 | 5000 to 10000
Cc1cc(-c2cc(C)c(N[C@@H]3CCCN(C)C3)nn2)ccc1Cl [compound 163] | > 1000 | > 10000
Cc1cc(-c2cc(C)c(N[C@@H]3CCCN(C)C3)nn2)ccc1C(F)(F)F [compound 100] | > 1000 | > 10000
CCN1CCC[C@@H](Nc2nnc(-c3ccc(C(F)(F)F)cc3)cc2C)C1 [compound 24] | 100 to 500 | > 10000
CN1CCC[C@@H](Nc2cc(C(F)(F)F)c(-c3ccc(C(F)(F)F)cc3)nn2)C1 [compound 61] | 10 to 50 | > 10000
Cc1cc(N[C@@H]2C[C@@H](F)CN(C)C2)nnc1-c1ccc(C(F)(F)F)cc1 [compound 17] | 50 to 100 | > 10000
CN1CCC[C@@H](Nc2cc(F)c(-c3ccc(C(F)(F)F)cc3)nn2)C1 [compound 143] | 10 to 50 | > 10000
Cc1cc(-c2ccc(C(F)(F)F)cc2)nnc1N[C@@H]1CCCN(C)C1 [compound 36] | 500 to 1000 | > 10000
Cc1cc(N[C@@H]2CCCN(CCF)C2)nnc1-c1ccc(F)cc1 [compound 65] | 500 to 1000 | > 10000
